From US10954538B2, “Enzymatic cyclization of homofarnesylic acid” (BASF SE, priority 2016, dated 2021)

System: Zm-SHC-1 (squalene-hopene cyclase, SEQ ID NO: 2)
Assay: Activity determination of the recombinant cyclase from E. coli LU15568 (conversion of homofarnesylic acid into sclareolide, GC)
Assay type: biochemical, Zymomonas mobilis
Conditions: E. coli LU15568 homogenate, pH 5.0, 37° C., 24 h, GC analysis
Procedure: Inoculated from a suitable 2 ml preculture, E. coli LU15568 was grown for 16 h at 37° C. in 20 ml LB-Amp/Spec/Cm ([…]), 0.1 mM IPTG, 0.5 g/l rhamnose in 100 ml Erlenmeyer flasks (with baffles), centrifuged at 5000*g/10 min and stored at 4° C. Protein extract was prepared by suspending the cell pellet in 15 ml disruption buffer (0.2 M Tris/HCl, 0.5 M EDTA, pH 8.0), 375 U benzonase (for example Novagen, 25 U/μL), 40 μL PMSF (100 mM, dissolved in i-PropOH), 0.8 g sucrose and approx. 0.5 mg of lysozyme. The reaction mixture was mixed and incubated on ice for 30 min. Thereafter, the mixture was frozen at −20° C.
After the reaction mixture had defrosted, it was made up to approx. 40 ml with distilled water and again incubated on ice for 30 min. […]
The conversion of homofarnesylic acid (1b) into sclareolide (3) can be determined with the following GC system:
• 0 min: 100° C. • 5° C./min to 200° C. • After 5 min: 30° C./min to 320° C. • thereafter constant • Duration of the method: 30 min Injector temperature: 280° C. Retention times (RT): • Homofarnesylic acid: peak 1 at 11.7 min, peak 2 at 12.1 min; • Sclareolide: approx. 13.5 min A calibration series, with the aid of which the concentration of unknown samples was determined, is established using authentic material (Sigma, catalog No.: 358002).

## CC(C)=CCC/C(C)=C/CC/C(C)=C/CC(=O)O [Homofarnesylic acid, (3E,7E)-4,8,12-trimethyltrideca-3,7,11-trienoic acid]
20 mM homofarnesylic acid (E,E 74.93%)
  conversion rate from the E,E isomer: 82.7%
20 mM homofarnesylic acid, sodium citrate buffer
  conversion rate in total: 74.5%
